Results on 19 molecules are retold here after patent US20230265104A1, “NOVEL HETEROCYCLIC COMPOUNDS” (PRISM BIOLAB CO., LTD., priority 2020, published 2023).

SMILES strings stand for the structures.

The test system of the test is PANC-1 (human pancreatic cancer-derived cell line). Description: MTS assay on Panc-1 (human pancreas carcinoma cell line). The test is classed as cell-based. The conditions noted are these: 144 h; for IC50: PANC-1, MTS method, cell survival 6 days after exposure, 4-parameter logistic fit; for inhibition at 30 µM / inhibition at 0.625 µM / inhibition at 1 µM / inhibition at 10 µM: PANC-1, MTS, 6 days; for inhibition at 30 µM: read-out: Growth inhibition (%) 30 μM; for inhibition at 0.625 µM: read-out: Growth inhibition (%) 0.625 μM; for inhibition at 1 µM: read-out: Growth inhibition (%) 1 μM; for inhibition at 10 µM: read-out: Growth inhibition (%) 10 μM. The method, then: Experimental Example: MTS Assay on Panc-1 (Human Pancreas Carcinoma Cell Line) cell line name: PANC-1 derived from: human pancreas glandular cancer purchased from: ATCC product code: CRL-1469 proliferation medium: D-MEM+10% FBS culture environment: 37° C., 5% CO2 seeding density: 5.0×10^5 cells/25 cm^2 solvent control substance: DMSO (HYBRI-MAX®, Sigma-Aldrich Corp.) test substance: Example compound (ID-1-ID-13) A DMSO solution of the test substance was prepared by serially diluting (common ratio 2) each test substance with DMSO.
A solvent control substance sample and a test substance sample were exposed to a human pancreatic cancer-derived cell line (PANC-1), and the survival rate of the cell 6 days later was measured by the MTS method. The measurement was performed 3 times and the average thereof was adopted. The survival rate of the cell in each test substance sample was calculated by the following formula 1 with the value at exposure of the solvent control substance sample as 100% survival rate. […]
survival rate (%)=100×absorbance of each test substance sample/absorbance of solvent control substance sample formula 1 Normalized values calculated by the following formula 2 from the absorbances of each sample at 492 nm and 630 nm and the absorbances of the blank were used as the absorbances in the above-mentioned formula 1. […]
normalized value (ABS492 nm-630 nm)=(ABSsa 492 nm-ABSsa 630 nm)−(ABSbl 492 nm-ABSbl 630 nm) ABSsa 492: absorbance of each sample at wavelength 492 nm ABSsa 630: absorbance of each sample at wavelength 630 nm ABSbl 492: absorbance of blank corresponding to each sample at wavelength 492 nm ABSbl 630: absorbance of blank corresponding to each sample at wavelength 630 nm formula 2 […]
The analysis was performed by using nplr package on R (The R Foundation for Statistical Computing) and estimating the logistic regression curve (4-parameter).
(Tetrazolium assays rely on reduction of a dye to a coloured formazan, in cell work by metabolically active cells.)

The IC50 is the concentration at which inhibition is half-maximal. As usually defined, the inhibition is the relative decrease from the control value, in per cent. As to `CC(C)C[C@H]1ON(C(=O)/C=C/c2ccccn2)[C@H]2CN(CCC(=O)N3CCNCC3)C(=O)[C@H](CC(C)C)N2C1=O` [ID-21, (3R,6S,9aS)-3,6-diisobutyl-8-(3-oxo-3-(piperazin-1-yl)propyl)-1-((E)-3-(pyridin-2-yl)acryloyl)tetrahydropyrazino[2,1-c][1,2,4]oxadiazine-4,7 (3H, 6H)-dione], the IC50 is 19.8 µM and the inhibition at 30 µM amounted to 99.5%. `CC(C)C[C@H]1ON(C(=O)/C=C/c2nn(C)c3ccccc23)[C@H]2CN(CCC(N)=O)C(=O)[C@H](CC(C)C)N2C1=O` [ID-22, 3-((3R,6S,9aS)-3,6-diisobutyl-1-((E)-3-(1-methyl-1H-indazol-3-yl)acryloyl)-4,7-dioxohexahydropyrazino[2,1-c][1,2,4]oxadiazin-8(1H)-yl)propanamide]: the IC50 was found to be 15.6 µM and the inhibition at 30 µM was 95.4%. `CC(C)C[C@H]1ON(C(=O)/C=C/c2nc3ccccc3s2)[C@H]2CN(CCC(N)=O)C(=O)[C@H](CC(C)C)N2C1=O` [ID-23, 3-((3R,6S,9aS)-1-((E)-3-(benzo[d]thiazol-2-yl)acryloyl)-3,6-diisobutyl-4,7-dioxohexahydropyrazino[2,1-c][1,2,4]oxadiazin-8(1H)-yl)propanamide]: the IC50 was determined as 0.77 µM and the inhibition at 30 µM amounted to 102%.

With `CC(C)C[C@H]1ON(C(=O)/C=C/c2ccc3ccccc3c2)[C@H]2CN(CCC(N)=O)C(=O)[C@H](CC(C)C)N2C1=O` [ID-24, 3-((3R,6S,9aS)-3,6-diisobutyl-1-((E)-3-(naphthalen-2-yl)acryloyl)-4,7-dioxohexahydropyrazino[2,1-c] [1,2,4]oxadiazin-8(1H)-yl)propanamide], the IC50 was determined as 15.8 µM and the inhibition at 30 µM amounted to 102%. Consider `CC(C)(C)C[C@H]1C(=O)N(CC2CCCCC2)C[C@@H]2N(C(=O)/C=C/c3cnc4ccccc4n3)O[C@H](CC3CCCCC3)C(=O)N21` [ID-25, (3R,6S,9aS)-3,8-bis(cyclohexylmethyl)-6-neopentyl-1-((E)-3-(quinoxalin-2-yl)acryloyl)tetrahydropyrazino[2,1-c] [1,2,4]oxadiazine-4,7(3H,6H)-dione], for which the inhibition at 0.625 µM stood at 4.7%, the inhibition at 1 µM was found to be 6% and the inhibition at 30 µM came to 98.5%. With `CC(C)(C)C[C@H]1C(=O)N(CC2CCNCC2)C[C@@H]2N(C(=O)/C=C/c3cnc4ccccc4n3)O[C@H](CC3CCCCC3)C(=O)N21` [ID-26, (3R,6S,9aS)-3-(cyclohexylmethyl)-6-neopentyl-8-(piperidin-4-ylmethyl)-1-((E)-3-(quinoxalin-2-yl)acryloyl)tetrahydropyrazino[2,1-c][1,2,4]oxadiazine-4,7(3H,6H)-dione], the inhibition at 0.625 µM amounted to 4.2% and the inhibition at 1 µM was 96.1%.

Consider `CC(C)C[C@H]1ON(C(=O)/C=C/c2ccccn2)[C@H]2CN(CCC(=O)Nc3nccs3)C(=O)[C@H](CC(C)C)N2C1=O` [ID-27, 3-((3R,6S,9aS)-3,6-diisobutyl-4,7-dioxo-1-((E)-3-(pyridin-2-yl)acryloyl)hexahydropyrazino[2,1-c][1,2,4]oxadiazin-8 (1H)-yl)—N-(thiazol-2-yl)propanamide], for which the IC50 was found to be 8.6 µM and the inhibition at 30 µM was 99.3%.

Regarding `CONC(=O)CCN1C[C@@H]2N(C(=O)/C=C/c3ccccn3)O[C@H](CC(C)C)C(=O)N2[C@@H](CC(C)C)C1=O` [ID-28, 3-((3R,6S,9aS)-3,6-diisobutyl-4,7-dioxo-1-((E)-3-(pyridin-2-yl)acryloyl)hexahydropyrazino[2,1-c][1,2,4]oxadiazin-8(1H)-yl)—N-methoxypropanamide], the IC50 came out at 16.2 µM and the inhibition at 30 µM was determined as 96.2%. Regarding `CC(C)C[C@H]1ON(C(=O)/C=C/c2nnc(C3CC3)s2)[C@H]2CN(CCC(N)=O)C(=O)[C@H](CC(C)C)N2C1=O` [ID-29, 3-((3R,6S,9aS)-1-((E)-3-(5-cyclopropyl-1,3,4-thiadiazol-2-yl)acryloyl)-3,6-diisobutyl-4,7-dioxohexahydropyrazino[2,1-c][1,2,4]oxadiazin-8(1H)-yl)propanamide], the IC50 was 2.3 µM and the inhibition at 10 µM came out at 101%. Regarding `CC(C)C[C@H]1ON(C(=O)/C=C/c2cccc3nccnc23)[C@H]2CN(CCC(N)=O)C(=O)[C@H](CC(C)C)N2C1=O` [ID-30, 3-((3R,6S,9aS)-3,6-diisobutyl-4,7-dioxo-1-((E)-3-(quinoxalin-5-yl)acryloyl)hexahydropyrazino[2,1-c][1,2,4]oxadiazin-8 (1H)-yl)propanamide], the inhibition at 10 µM worked out at 58.4%. For `CC(C)C[C@H]1ON(C(=O)/C=C/c2ccc3cccnc3n2)[C@H]2CN(CCC(N)=O)C(=O)[C@H](CC(C)C)N2C1=O` [ID-31, 3-((3R,6S,9aS)-1-((E)-3-(1,8-naphthyridin-2-yl)acryloyl)-3,6-diisobutyl-4,7-dioxohexahydropyrazino[2,1-c][1,2,4]oxadiazin-8(1H)-yl)propanamide], the IC50 came out at 2.7 µM and the inhibition at 10 µM was determined as 99.3%. Turning to `CC(C)C[C@H]1ON(C(=O)/C=C/c2nc3cccnc3s2)[C@H]2CN(CCC(N)=O)C(=O)[C@H](CC(C)C)N2C1=O` [ID-32, 3-((3R,6S,9aS)-3,6-diisobutyl-4,7-dioxo-1-((E)-3-(thiazolo[5,4-b]pyridin-2-yl)acryloyl)hexahydropyrazino[2,1-c][1,2,4]oxadiazin-8(1H)-yl)propanamide], the midpoint of inhibition, the IC50, lay at 0.62 µM and the inhibition at 10 µM amounted to 101%. For the molecule `CCOC(=O)c1cnc(/C=C/C(=O)N2O[C@H](CC(C)C)C(=O)N3[C@@H]2CN(CCC(N)=O)C(=O)[C@@H]3CC(C)C)s1` [ID-33, ethyl 2-((E)-3-((3R,6S,9aS)-8-(3-amino-3-oxopropyl)-3,6-diisobutyl-4,7-dioxohexahydropyrazino[2,1-c][1,2,4]oxadiazin-1(6H)-yl)-3-oxoprop-1-en-1-yl)thiazole-5-carboxylate], 1.1 µM corresponded to half-maximal inhibition (IC50) and the inhibition at 10 µM came out at 99.9%. For `Cc1nc(/C=C/C(=O)N2O[C@H](CC(C)C)C(=O)N3[C@@H]2CN(CCC(N)=O)C(=O)[C@@H]3CC(C)C)sc1C` [ID-34, 3-((3R,6S,9aS)-1-((E)-3-(4,5-dimethylthiazol-2-yl)acryloyl)-3,6-diisobutyl-4,7-dioxohexahydropyrazino[2,1-c][1,2,4]oxadiazin-8(1H)-yl)propanamide] the same measures were 2.6 µM and 95.5%. For `CC(C)C[C@H]1CN(CCCN(C)C2CCN(C)CC2)C[C@@H]2N(C(=O)/C=C/c3ccccn3)O[C@H](CC(C)C)C(=O)N12` [ID-35, (3R,6S,9aS)-3,6-diisobutyl-8-(3-(methyl(1-methylpiperidin-4-yl)amino)propyl)-1-((E)-3-(pyridin-2-yl)acryloyl)hexahydropyrazino[2,1-c][1,2,4]oxadiazin-4(3H)-one] the same measures were 5 µM and 99%. As for `CC(C)C[C@H]1ON(C(=O)/C=C/c2ccccn2)[C@H]2CN(C3CCN(Cc4ncccn4)CC3)C(=O)[C@H](CC(C)C)N2C1=O` [ID-36, (3R,6S,9aS)-3,6-diisobutyl-1-((E)-3-(pyridin-2-yl)acryloyl)-8-(1-(pyrimidin-2-ylmethyl)piperidin-4-yl)tetrahydropyrazino[2,1-c][1,2,4]oxadiazine-4,7(3H,6H)-dione], the inhibition at 10 µM was 76%. `CC(C)C[C@H]1ON(C(=O)/C=C/c2nc3c(s2)CCCC3)[C@H]2CN(CCC(N)=O)C(=O)[C@H](CC(C)C)N2C1=O` [ID-37, 3-((3R,6S,9aS)-3,6-diisobutyl-4,7-dioxo-1-((E)-3-(4,5,6,7-tetrahydrobenzo[d]thiazol-2-yl)acryloyl)hexahydropyrazino[2,1-c][1,2,4]oxadiazin-8 (1H)-yl)propanamide]: half-maximal inhibition (IC50) required 4.7 µM and the inhibition at 10 µM is 95.8%. Take `CC(C)C[C@H]1ON(C(=O)/C=C\c2ccccc2)[C@H]2CN(C3CCN(C)CC3)C(=O)[C@H](CC(C)C)N2C1=O` [ID-38, (3R,6S,9aS)-3,6-diisobutyl-8-(1-methylpiperidin-4-yl)-1-((Z)-3-phenylacryloyl)tetrahydropyrazino[2,1-c] [1,2,4] oxadiazine-4,7 (3H, 6H)-dione]: the IC50 amounted to 8 µM and the inhibition at 10 µM is 82.6%. The corresponding values for `CC(C)C[C@H]1ON(C(=O)/C=C/c2ccccc2)[C@H]2CN(C3CCN(C)CC3)C(=O)[C@H](CC(C)C)N2C1=O` [ID-39, (3R,6S,9aS)-1-cinnamoyl-3,6-diisobutyl-8-(1-methylpiperidin-4-yl)tetrahydropyrazino[2,1-c][1,2,4]oxadiazine-4,7 (3H, 6H)-dione] are 8.9 µM and 80.8%.
